Data published in patent US8598365B2, “Herbicides” (Syngenta Limited, priority 2007, dated 2013).

Assays:
Type in all cases: in vivo
[1] = system: Alopecurus myosuroides (ALOMY); test: Example A pre-emergence herbicidal activity; details: rate 250 g/ha, evaluated 19 or 20 days later
Method: (§1) Seeds of a variety of test species were sown in standard soil in pots. After cultivation for one day (pre-emergence) or after 10 days cultivation (post-emergence) under controlled conditions in a glasshouse, the plants were sprayed with an aqueous spray solution derived from the formulation of the technical active ingredient in 0.6 ml acetone and 45 ml formulation solution containing 10.6% Emulsogen EL (Registry number 61791-12-6), 42.2% N-methylpyrrolidone, 42.2% dipropylene glycol monomethyl ether (Registry number 34590-94-8) and 0.2% X-77 (Registry number 11097-66-8). The test plants were then grown in a greenhouse under optimum conditions until, 14 or 15 days later for post-emergence and 19 or 20 days for pre-emergence, the test was evaluated (100=total damage to plant; 0=no damage to plant). Alopecurus myosuroides (ALOMY), Avena fatua (AVEFA), Lolium perenne (LOLPE), Setaria faberi (SETFA), Digitaria sanguinalis (DIGSA), Echinochloa crus-galli (ECHCG)

[2] = system: Avena fatua (AVEFA); test: Example A pre-emergence herbicidal activity; details: rate 250 g/ha, evaluated 19 or 20 days later
Method: as §1

[3] = system: Digitaria sanguinalis (DIGSA); test: Example A pre-emergence herbicidal activity; details: rate 250 g/ha, evaluated 19 or 20 days later
Method: as §1

[4] = system: Echinochloa crus-galli (ECHCG); test: Example A pre-emergence herbicidal activity; details: rate 250 g/ha, evaluated 19 or 20 days later
Method: as §1

[5] = system: Lolium perenne (LOLPE); test: Example A pre-emergence herbicidal activity; details: rate 250 g/ha, evaluated 19 or 20 days later
Method: as §1

[6] = system: Setaria faberi (SETFA); test: Example A pre-emergence herbicidal activity; details: rate 250 g/ha, evaluated 19 or 20 days later
Method: as §1

[7] = system: Alopecurus myosuroides (ALOMY); test: Example A post-emergence herbicidal activity; details: rate 125 g/ha, evaluated 14 or 15 days later
Method: as §1

[8] = system: Avena fatua (AVEFA); test: Example A post-emergence herbicidal activity; details: rate 125 g/ha, evaluated 14 or 15 days later
Method: as §1

[9] = system: Digitaria sanguinalis (DIGSA); test: Example A post-emergence herbicidal activity; details: rate 125 g/ha, evaluated 14 or 15 days later
Method: as §1

[10] = system: Echinochloa crus-galli (ECHCG); test: Example A post-emergence herbicidal activity; details: rate 125 g/ha, evaluated 14 or 15 days later
Method: as §1

[11] = system: Lolium perenne (LOLPE); test: Example A post-emergence herbicidal activity; details: rate 125 g/ha, evaluated 14 or 15 days later
Method: as §1

[12] = system: Setaria faberi (SETFA); test: Example A post-emergence herbicidal activity; details: rate 125 g/ha, evaluated 14 or 15 days later
Method: as §1

[13] = system: Alopecurus myosuroides (ALOMY); test: Example B pre-emergence herbicidal activity; details: 312 h, rate 250 g/ha, evaluated after 13 days, read-out: Pre-Emergence Activity ALOMY (100=total damage to plant; 0=no damage to plant)
Method in brief: (§2)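 Damage was rated 13 days after treatment on a 0 (no damage) to 100 (total damage) scale. Pots of soil-sown plants had been sprayed one day after sowing for pre-emergence or at 8 days for post-emergence. Spray: acetone/water (50:50), 0.5% Tween 20.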

[14] = system: Amaranthus retoflexus (AMARE); test: Example B pre-emergence herbicidal activity; details: Amaranthus retroflexus, 312 h, rate 250 g/ha, evaluated after 13 days, read-out: Pre-Emergence Activity AMARE (100=total damage to plant; 0=no damage to plant)
Method in brief: as §2

[15] = system: Avena fatua (AVEFA); test: Example B pre-emergence herbicidal activity; details: 312 h, rate 250 g/ha, evaluated after 13 days, read-out: Pre-Emergence Activity AVEFA (100=total damage to plant; 0=no damage to plant)
Method in brief: as §2

[16] = system: Echinochloa crus-galli (ECHCG); test: Example B pre-emergence herbicidal activity; details: 312 h, rate 250 g/ha, evaluated after 13 days, read-out: Pre-Emergence Activity ECHCG (100=total damage to plant; 0=no damage to plant)
Method in brief: as §2

[17] = system: Setaria faberi (SETFA); test: Example B pre-emergence herbicidal activity; details: 312 h, rate 250 g/ha, evaluated after 13 days, read-out: Pre-Emergence Activity SETFA (100=total damage to plant; 0=no damage to plant)
Method in brief: as §2

[18] = system: Alopecurus myosuroides (ALOMY); test: Example B post-emergence herbicidal activity; details: 312 h, rate 250 g/ha, evaluated after 13 days, read-out: Post-emergence activity ALOMY (100=total damage to plant; 0=no damage to plant)
Method in brief: as §2

[19] = system: Amaranthus retoflexus (AMARE); test: Example B post-emergence herbicidal activity; details: Amaranthus retroflexus, 312 h, rate 250 g/ha, evaluated after 13 days, read-out: Post-emergence activity AMARE (100=total damage to plant; 0=no damage to plant)
Method in brief: as §2

[20] = system: Avena fatua (AVEFA); test: Example B post-emergence herbicidal activity; details: 312 h, rate 250 g/ha, evaluated after 13 days, read-out: Post-emergence activity AVEFA (100=total damage to plant; 0=no damage to plant)
Method in brief: as §2

[21] = system: Echinochloa crus-galli (ECHCG); test: Example B post-emergence herbicidal activity; details: 312 h, rate 250 g/ha, evaluated after 13 days, read-out: Post-emergence activity ECHCG (100=total damage to plant; 0=no damage to plant)
Method in brief: as §2

[22] = system: Setaria faberi (SETFA); test: Example B post-emergence herbicidal activity; details: 312 h, rate 250 g/ha, evaluated after 13 days, read-out: Post-emergence activity SETFA (100=total damage to plant; 0=no damage to plant)
Method in brief: as §2

Cc1[se]c(-c2ccc(Cl)cc2)nc1C1C(=O)[C@@H]2CC[C@@H](C2)C1=O (stereo partly shown) [Compound T1, 3-[2-(4-chlorophenyl)-5-methylselenazol-4-yl]bicyclo[3.2.1]octane-2,4-dione]
Pre-Emergence Activity ALOMY (100=total damage to plant; 0=no damage to plant) [1]: 60 | Pre-Emergence Activity AVEFA (100=total damage to plant; 0=no damage to plant) [2]: 20 | Pre-Emergence Activity DIGSA (100=total damage to plant; 0=no damage to plant) [3]: 60 | Pre-Emergence Activity ECHCG (100=total damage to plant; 0=no damage to plant) [4]: 60 | Pre-Emergence Activity LOLPE (100=total damage to plant; 0=no damage to plant) [5]: 80 | Pre-Emergence Activity SETFA (100=total damage to plant; 0=no damage to plant) [6]: 70 | Post-Emergence Activity ALOMY (100=total damage to plant; 0=no damage to plant) [7]: 70 | Post-Emergence Activity AVEFA (100=total damage to plant; 0=no damage to plant) [8]: 70 | Post-Emergence Activity DIGSA (100=total damage to plant; 0=no damage to plant) [9]: 80 | Post-Emergence Activity ECHCG (100=total damage to plant; 0=no damage to plant) [10]: 100 | Post-Emergence Activity LOLPE (100=total damage to plant; 0=no damage to plant) [11]: 30 | Post-Emergence Activity SETFA (100=total damage to plant; 0=no damage to plant) [12]: 90

Cc1sc(-c2ccc(Br)cc2)nc1C1C(=O)[C@@H]2CC[C@@H](C2)C1=O (stereo partly shown) [Compound T15]
Pre-Emergence Activity ALOMY (100=total damage to plant; 0=no damage to plant) [1]: 90 | Pre-Emergence Activity DIGSA (100=total damage to plant; 0=no damage to plant) [3]: 100 | Pre-Emergence Activity ECHCG (100=total damage to plant; 0=no damage to plant) [4]: 100 | Pre-Emergence Activity LOLPE (100=total damage to plant; 0=no damage to plant) [5]: 100 | Pre-Emergence Activity SETFA (100=total damage to plant; 0=no damage to plant) [6]: 100 | Post-Emergence Activity ALOMY (100=total damage to plant; 0=no damage to plant) [7]: 90 | Post-Emergence Activity AVEFA (100=total damage to plant; 0=no damage to plant) [8]: 90 | Post-Emergence Activity DIGSA (100=total damage to plant; 0=no damage to plant) [9]: 100 | Post-Emergence Activity ECHCG (100=total damage to plant; 0=no damage to plant) [10]: 70 | Post-Emergence Activity LOLPE (100=total damage to plant; 0=no damage to plant) [11]: 50 | Post-Emergence Activity SETFA (100=total damage to plant; 0=no damage to plant) [12]: 100

Cc1sc(-c2ccc(Cl)nc2)nc1C1C(=O)[C@@H]2CC[C@@H](C2)C1=O (stereo partly shown) [Compound T16]
Pre-Emergence Activity ALOMY (100=total damage to plant; 0=no damage to plant) [1]: 10 | Pre-Emergence Activity AVEFA (100=total damage to plant; 0=no damage to plant) [2]: 20 | Pre-Emergence Activity DIGSA (100=total damage to plant; 0=no damage to plant) [3]: 80 | Pre-Emergence Activity ECHCG (100=total damage to plant; 0=no damage to plant) [4]: 70 | Pre-Emergence Activity LOLPE (100=total damage to plant; 0=no damage to plant) [5]: 20 | Pre-Emergence Activity SETFA (100=total damage to plant; 0=no damage to plant) [6]: 80 | Post-Emergence Activity ALOMY (100=total damage to plant; 0=no damage to plant) [7]: 20 | Post-Emergence Activity AVEFA (100=total damage to plant; 0=no damage to plant) [8]: 40 | Post-Emergence Activity DIGSA (100=total damage to plant; 0=no damage to plant) [9]: 70 | Post-Emergence Activity ECHCG (100=total damage to plant; 0=no damage to plant) [10]: 50 | Post-Emergence Activity LOLPE (100=total damage to plant; 0=no damage to plant) [11]: 20 | Post-Emergence Activity SETFA (100=total damage to plant; 0=no damage to plant) [12]: 60

Cc1sc(-c2ccc(Cl)cc2)nc1C1C(=O)[C@@H]2CC[C@@H](C2)C1=O (stereo partly shown) [Compound T17]
Pre-Emergence Activity ALOMY (100=total damage to plant; 0=no damage to plant) [1]: 100 | Pre-Emergence Activity AVEFA (100=total damage to plant; 0=no damage to plant) [2]: 100 | Pre-Emergence Activity DIGSA (100=total damage to plant; 0=no damage to plant) [3]: 100 | Pre-Emergence Activity ECHCG (100=total damage to plant; 0=no damage to plant) [4]: 100 | Pre-Emergence Activity LOLPE (100=total damage to plant; 0=no damage to plant) [5]: 100 | Pre-Emergence Activity SETFA (100=total damage to plant; 0=no damage to plant) [6]: 100 | Post-Emergence Activity ALOMY (100=total damage to plant; 0=no damage to plant) [7]: 70 | Post-Emergence Activity AVEFA (100=total damage to plant; 0=no damage to plant) [8]: 50 | Post-Emergence Activity DIGSA (100=total damage to plant; 0=no damage to plant) [9]: 80 | Post-Emergence Activity ECHCG (100=total damage to plant; 0=no damage to plant) [10]: 90 | Post-Emergence Activity LOLPE (100=total damage to plant; 0=no damage to plant) [11]: 40 | Post-Emergence Activity SETFA (100=total damage to plant; 0=no damage to plant) [12]: 80

COc1ccc(-c2nc(C3C(=O)[C@@H]4CC[C@@H](C4)C3=O)c(C)s2)cn1 (stereo partly shown) [Compound T18]
Pre-Emergence Activity ALOMY (100=total damage to plant; 0=no damage to plant) [1]: 0 | Pre-Emergence Activity AVEFA (100=total damage to plant; 0=no damage to plant) [2]: 0 | Pre-Emergence Activity DIGSA (100=total damage to plant; 0=no damage to plant) [3]: 30 | Pre-Emergence Activity ECHCG (100=total damage to plant; 0=no damage to plant) [4]: 20 | Pre-Emergence Activity LOLPE (100=total damage to plant; 0=no damage to plant) [5]: 0 | Pre-Emergence Activity SETFA (100=total damage to plant; 0=no damage to plant) [6]: 20 | Post-Emergence Activity ALOMY (100=total damage to plant; 0=no damage to plant) [7]: 40 | Post-Emergence Activity AVEFA (100=total damage to plant; 0=no damage to plant) [8]: 30 | Post-Emergence Activity DIGSA (100=total damage to plant; 0=no damage to plant) [9]: 60 | Post-Emergence Activity ECHCG (100=total damage to plant; 0=no damage to plant) [10]: 50 | Post-Emergence Activity LOLPE (100=total damage to plant; 0=no damage to plant) [11]: 20 | Post-Emergence Activity SETFA (100=total damage to plant; 0=no damage to plant) [12]: 60

CCc1sc(-c2cnc(Cl)cc2C)nc1C1C(=O)[C@@H]2CC[C@@H](C2)C1=O (stereo partly shown) [Compound T110]
pest or weed control at 250 g/ha [13]: 30% | pest or weed control at 250 g/ha [14]: 20% | pest or weed control at 250 g/ha [15]: 30% | pest or weed control at 250 g/ha [16]: 60% | pest or weed control at 250 g/ha [17]: 100% | pest or weed control at 250 g/ha [18]: 60% | pest or weed control at 250 g/ha [19]: 0% | pest or weed control at 250 g/ha [20]: 70% | pest or weed control at 250 g/ha [21]: 90% | pest or weed control at 250 g/ha [22]: 100%

CCc1sc(-c2ccc(OC)c(F)c2)nc1C1C(=O)[C@@H]2CC[C@@H](C2)C1=O (stereo partly shown) [Compound T111]
pest or weed control at 250 g/ha [13]: 50% | pest or weed control at 250 g/ha [14]: 0% | pest or weed control at 250 g/ha [15]: 90% | pest or weed control at 250 g/ha [16]: 100% | pest or weed control at 250 g/ha [17]: 80% | pest or weed control at 250 g/ha [18]: 100% | pest or weed control at 250 g/ha [19]: 0% | pest or weed control at 250 g/ha [20]: 100% | pest or weed control at 250 g/ha [21]: 100% | pest or weed control at 250 g/ha [22]: 100%
